Patent US20220281848A1, “PYRAZOLE-SUBSTITUTED PYRROLIDINONES AS HERBICIDES” (FMC Corporation, priority 2019, published 2022)

Test system: plants
Experiment: Test D pre-emergence, other plants of Tables D1 and D3
Format: in vivo
Settings: preemergent, 20 DAA
Outline: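 Damage was rated visually from 0 (none) to 100 (total), at 20 DAA for pre-emergence and 15 d for post-emergence. Plants grew from safener-treated seed in a glasshouse at 24/18° C. or 20/16° C. day/night, 65% humidity, watered twice daily.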

Structure (SMILES): CCn1nc([C@H]2CN(C)C(=O)[C@@H]2C(=O)Nc2cccc(F)c2F)c2cc(F)ccc21 [Compound 8]
- damage to plant (100=total damage to plant; 0=no damage to plant), ABUTH (rate 15): 0
- damage to plant (100=total damage to plant; 0=no damage to plant), ABUTH (rate 30): 0
- damage to plant (100=total damage to plant; 0=no damage to plant), ABUTH (rate 60): 0
- damage to plant (100=total damage to plant; 0=no damage to plant), ABUTH (rate 130): 0
- damage to plant (100=total damage to plant; 0=no damage to plant), ABUTH (rate 250): 0
- damage to plant (100=total damage to plant; 0=no damage to plant), ABUTH (rate 500): 0
- damage to plant (100=total damage to plant; 0=no damage to plant), AMARE (rate 15): 0
- damage to plant (100=total damage to plant; 0=no damage to plant), AMARE (rate 30): 0
- damage to plant (100=total damage to plant; 0=no damage to plant), AMARE (rate 60): 0
- damage to plant (100=total damage to plant; 0=no damage to plant), AMARE (rate 130): 0
- damage to plant (100=total damage to plant; 0=no damage to plant), AMARE (rate 250): 0
- damage to plant (100=total damage to plant; 0=no damage to plant), AMARE (rate 500): 0
- damage to plant (100=total damage to plant; 0=no damage to plant), BIDPI (rate 15): 0
- damage to plant (100=total damage to plant; 0=no damage to plant), BIDPI (rate 30): 0
- damage to plant (100=total damage to plant; 0=no damage to plant), BIDPI (rate 60): 0
- damage to plant (100=total damage to plant; 0=no damage to plant), BIDPI (rate 130): 0
- damage to plant (100=total damage to plant; 0=no damage to plant), BIDPI (rate 250): 0
- damage to plant (100=total damage to plant; 0=no damage to plant), BIDPI (rate 500): 0
- damage to plant (100=total damage to plant; 0=no damage to plant), BRAPL (rate 15): 20
- damage to plant (100=total damage to plant; 0=no damage to plant), BRAPL (rate 30): 70
- damage to plant (100=total damage to plant; 0=no damage to plant), BRAPL (rate 60): 70
- damage to plant (100=total damage to plant; 0=no damage to plant), BRAPL (rate 130): 80
- damage to plant (100=total damage to plant; 0=no damage to plant), BRAPL (rate 250): 90
- damage to plant (100=total damage to plant; 0=no damage to plant), BRAPL (rate 500): 100
- damage to plant (100=total damage to plant; 0=no damage to plant), CYPES (rate 15): 0
- damage to plant (100=total damage to plant; 0=no damage to plant), CYPES (rate 30): 0
- damage to plant (100=total damage to plant; 0=no damage to plant), CYPES (rate 60): 0
- damage to plant (100=total damage to plant; 0=no damage to plant), CYPES (rate 130): 0
- damage to plant (100=total damage to plant; 0=no damage to plant), CYPES (rate 250): 0
- damage to plant (100=total damage to plant; 0=no damage to plant), CYPES (rate 500): 0
- damage to plant (100=total damage to plant; 0=no damage to plant), DIGSA (rate 15): 10
- damage to plant (100=total damage to plant; 0=no damage to plant), DIGSA (rate 30): 90
- damage to plant (100=total damage to plant; 0=no damage to plant), DIGSA (rate 60): 100
- damage to plant (100=total damage to plant; 0=no damage to plant), DIGSA (rate 130): 100
- damage to plant (100=total damage to plant; 0=no damage to plant), DIGSA (rate 250): 100
- damage to plant (100=total damage to plant; 0=no damage to plant), DIGSA (rate 500): 100
- damage to plant (100=total damage to plant; 0=no damage to plant), ECHCG (rate 15): 30
- damage to plant (100=total damage to plant; 0=no damage to plant), ECHCG (rate 30): 90
- damage to plant (100=total damage to plant; 0=no damage to plant), ECHCG (rate 60): 90
- damage to plant (100=total damage to plant; 0=no damage to plant), ECHCG (rate 130): 90
- damage to plant (100=total damage to plant; 0=no damage to plant), ECHCG (rate 250): 90
- damage to plant (100=total damage to plant; 0=no damage to plant), ECHCG (rate 500): 100
- damage to plant (100=total damage to plant; 0=no damage to plant), ELEIN (rate 15): 0
- damage to plant (100=total damage to plant; 0=no damage to plant), ELEIN (rate 30): 0
- damage to plant (100=total damage to plant; 0=no damage to plant), ELEIN (rate 60): 0
- damage to plant (100=total damage to plant; 0=no damage to plant), ELEIN (rate 130): 0
- damage to plant (100=total damage to plant; 0=no damage to plant), ELEIN (rate 250): 0
- damage to plant (100=total damage to plant; 0=no damage to plant), ELEIN (rate 500): 0
- damage to plant (100=total damage to plant; 0=no damage to plant), EPHHL (rate 15): 0
- damage to plant (100=total damage to plant; 0=no damage to plant), EPHHL (rate 30): 0
- damage to plant (100=total damage to plant; 0=no damage to plant), EPHHL (rate 60): 0
- damage to plant (100=total damage to plant; 0=no damage to plant), EPHHL (rate 130): 0
- damage to plant (100=total damage to plant; 0=no damage to plant), EPHHL (rate 250): 0
- damage to plant (100=total damage to plant; 0=no damage to plant), EPHHL (rate 500): 70
- damage to plant (100=total damage to plant; 0=no damage to plant), GLXMA (rate 15): 0
- damage to plant (100=total damage to plant; 0=no damage to plant), GLXMA (rate 30): 0
- damage to plant (100=total damage to plant; 0=no damage to plant), GLXMA (rate 60): 0
- damage to plant (100=total damage to plant; 0=no damage to plant), GLXMA (rate 130): 0
- damage to plant (100=total damage to plant; 0=no damage to plant), GLXMA (rate 250): 0
- damage to plant (100=total damage to plant; 0=no damage to plant), GLXMA (rate 500): 0
- damage to plant (100=total damage to plant; 0=no damage to plant), IPOHE (rate 15): 0
- damage to plant (100=total damage to plant; 0=no damage to plant), IPOHE (rate 30): 0
- damage to plant (100=total damage to plant; 0=no damage to plant), IPOHE (rate 60): 0
- damage to plant (100=total damage to plant; 0=no damage to plant), IPOHE (rate 130): 0
- damage to plant (100=total damage to plant; 0=no damage to plant), IPOHE (rate 250): 0
- damage to plant (100=total damage to plant; 0=no damage to plant), IPOHE (rate 500): 0
- damage to plant (100=total damage to plant; 0=no damage to plant), ORYSA (rate 15): 0
- damage to plant (100=total damage to plant; 0=no damage to plant), ORYSA (rate 30): 0
- damage to plant (100=total damage to plant; 0=no damage to plant), ORYSA (rate 60): 0
- damage to plant (100=total damage to plant; 0=no damage to plant), ORYSA (rate 130): 0
- damage to plant (100=total damage to plant; 0=no damage to plant), ORYSA (rate 250): 0
- damage to plant (100=total damage to plant; 0=no damage to plant), ORYSA (rate 500): 0
- damage to plant (100=total damage to plant; 0=no damage to plant), PANMI (rate 15): 0
- damage to plant (100=total damage to plant; 0=no damage to plant), PANMI (rate 30): 0
- damage to plant (100=total damage to plant; 0=no damage to plant), PANMI (rate 60): 0
- damage to plant (100=total damage to plant; 0=no damage to plant), PANMI (rate 130): 0
- damage to plant (100=total damage to plant; 0=no damage to plant), PANMI (rate 250): 0
- damage to plant (100=total damage to plant; 0=no damage to plant), PANMI (rate 500): 30
- damage to plant (100=total damage to plant; 0=no damage to plant), SETFA (rate 15): 10
- damage to plant (100=total damage to plant; 0=no damage to plant), SETFA (rate 30): 80
- damage to plant (100=total damage to plant; 0=no damage to plant), SETFA (rate 60): 70
- damage to plant (100=total damage to plant; 0=no damage to plant), SETFA (rate 130): 90
- damage to plant (100=total damage to plant; 0=no damage to plant), SETFA (rate 250): 100
- damage to plant (100=total damage to plant; 0=no damage to plant), SETFA (rate 500): 100
- damage to plant (100=total damage to plant; 0=no damage to plant), SIDSP (rate 15): 0
- damage to plant (100=total damage to plant; 0=no damage to plant), SIDSP (rate 30): 0
- damage to plant (100=total damage to plant; 0=no damage to plant), SIDSP (rate 60): 0
- damage to plant (100=total damage to plant; 0=no damage to plant), SIDSP (rate 130): 0
- damage to plant (100=total damage to plant; 0=no damage to plant), SIDSP (rate 250): 0
- damage to plant (100=total damage to plant; 0=no damage to plant), SIDSP (rate 500): 0
- damage to plant (100=total damage to plant; 0=no damage to plant), SORVU (rate 15): 0
- damage to plant (100=total damage to plant; 0=no damage to plant), SORVU (rate 130): 10
